# Laboratory results from ChEMBL document CHEMBL4507313, “Data for DCP probe BAY-179” (2021).
# Columns and labels:
# [1] = target: Alpha-1A adrenergic receptor (Homo sapiens) (UniProt P35348); conditions: Compound concentration 10.0 uM
# [2] = target: 5-hydroxytryptamine receptor 3A (Homo sapiens) (UniProt P46098); conditions: Compound concentration 10.0 uM
# [3] = target: T1, GABA-A receptor; anion channel (Rattus norvegicus) (UniProt O09028+P15431+P18506+P18508+P19969+P20236+P23574+P23576+P28471+P28473+P30191+P62813+P63079+P63138+Q91ZM7+Q9ES14); conditions: Compound concentration 10.0 uM
# [4] = target: Histamine H3 receptor (Homo sapiens) (UniProt Q9Y5N1); conditions: Compound concentration 10.0 uM
# Sequence of Histamine H3 receptor (Homo sapiens) (Q9Y5N1 whole entry): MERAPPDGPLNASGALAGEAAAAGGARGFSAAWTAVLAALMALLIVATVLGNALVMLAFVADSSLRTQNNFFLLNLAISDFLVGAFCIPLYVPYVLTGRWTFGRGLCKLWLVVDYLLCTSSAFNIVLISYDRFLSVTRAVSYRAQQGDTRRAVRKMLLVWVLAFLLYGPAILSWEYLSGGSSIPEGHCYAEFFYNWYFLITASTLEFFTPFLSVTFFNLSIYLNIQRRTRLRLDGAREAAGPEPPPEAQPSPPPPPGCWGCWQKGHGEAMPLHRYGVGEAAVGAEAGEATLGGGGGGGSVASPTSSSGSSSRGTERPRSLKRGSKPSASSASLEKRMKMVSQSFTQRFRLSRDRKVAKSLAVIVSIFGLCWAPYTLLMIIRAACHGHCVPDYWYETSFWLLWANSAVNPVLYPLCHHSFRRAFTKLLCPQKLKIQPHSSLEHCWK
# [5] = target: D(1B) dopamine receptor (Homo sapiens) (UniProt P21918); conditions: Compound concentration 10.0 uM
# Sequence of D(1B) dopamine receptor (Homo sapiens) (P21918 whole entry): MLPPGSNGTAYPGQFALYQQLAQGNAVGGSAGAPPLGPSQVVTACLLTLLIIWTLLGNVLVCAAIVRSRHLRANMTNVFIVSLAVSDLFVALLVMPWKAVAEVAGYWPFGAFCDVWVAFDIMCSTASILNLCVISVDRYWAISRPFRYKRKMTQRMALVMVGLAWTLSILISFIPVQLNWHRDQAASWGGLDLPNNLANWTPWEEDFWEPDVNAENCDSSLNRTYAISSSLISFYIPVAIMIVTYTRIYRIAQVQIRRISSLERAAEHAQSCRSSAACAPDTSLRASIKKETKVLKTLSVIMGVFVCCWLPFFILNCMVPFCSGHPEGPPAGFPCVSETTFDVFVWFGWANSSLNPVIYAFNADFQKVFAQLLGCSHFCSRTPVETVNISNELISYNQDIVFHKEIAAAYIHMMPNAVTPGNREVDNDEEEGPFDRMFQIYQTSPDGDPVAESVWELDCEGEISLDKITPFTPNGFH
# [6] = target: Sodium-dependent serotonin transporter (Homo sapiens) (UniProt P31645); conditions: Compound concentration 10.0 uM
# [7] = target: Sodium-dependent dopamine transporter (Homo sapiens) (UniProt Q01959); conditions: Compound concentration 10.0 uM
# [8] = target: 5-hydroxytryptamine receptor 7 (Homo sapiens) (UniProt P34969); conditions: Compound concentration 10.0 uM
# [9] = target: Histamine H2 receptor (Homo sapiens) (UniProt P25021); conditions: Compound concentration 10.0 uM
# [10] = target: Alpha-1D adrenergic receptor (Homo sapiens) (UniProt P25100); conditions: Compound concentration 10.0 uM
# [11] = target: Kappa-type opioid receptor (Homo sapiens) (UniProt P41145); conditions: Compound concentration 10.0 uM
# [12] = target: Alpha-2C adrenergic receptor (Homo sapiens) (UniProt P18825); conditions: Compound concentration 10.0 uM
# [13] = target: Sodium-dependent noradrenaline transporter (Homo sapiens) (UniProt P23975); conditions: Compound concentration 10.0 uM
# [14] = target: Histamine H4 receptor (Homo sapiens) (UniProt Q9H3N8); conditions: Compound concentration 10.0 uM
# Sequence of Histamine H4 receptor (Homo sapiens) (Q9H3N8 whole entry): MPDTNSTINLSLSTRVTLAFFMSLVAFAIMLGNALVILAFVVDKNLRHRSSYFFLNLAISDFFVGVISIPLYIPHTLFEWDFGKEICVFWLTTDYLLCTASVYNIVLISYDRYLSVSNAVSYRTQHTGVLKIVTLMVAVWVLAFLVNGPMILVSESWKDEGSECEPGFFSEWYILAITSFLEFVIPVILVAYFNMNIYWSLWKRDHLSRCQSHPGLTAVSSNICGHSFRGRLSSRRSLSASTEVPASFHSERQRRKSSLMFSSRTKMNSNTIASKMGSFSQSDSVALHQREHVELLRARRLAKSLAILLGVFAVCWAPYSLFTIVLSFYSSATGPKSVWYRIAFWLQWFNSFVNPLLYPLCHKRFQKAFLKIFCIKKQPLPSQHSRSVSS
# [15] = target: 5-hydroxytryptamine receptor 1B (Homo sapiens) (UniProt P28222); conditions: Compound concentration 10.0 uM
# [16] = target: Muscarinic acetylcholine receptor M5 (Homo sapiens) (UniProt P08912); conditions: Compound concentration 10.0 uM
# [17] = target: T2, Sigma intracellular receptor 2 (Homo sapiens, UniProt Q5BJF2); conditions: Compound concentration 10.0 uM
# T2 sequence (Q5BJF2 whole entry): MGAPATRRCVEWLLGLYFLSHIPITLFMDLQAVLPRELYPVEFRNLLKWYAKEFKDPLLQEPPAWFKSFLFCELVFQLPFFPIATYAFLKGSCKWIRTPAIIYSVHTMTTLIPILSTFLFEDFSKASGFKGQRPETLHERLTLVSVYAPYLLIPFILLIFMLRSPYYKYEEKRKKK
# [18] = target: T3, 5-hydroxytryptamine receptor 6 (Homo sapiens, UniProt P50406); conditions: Compound concentration 10.0 uM
# T3 sequence (P50406 whole entry): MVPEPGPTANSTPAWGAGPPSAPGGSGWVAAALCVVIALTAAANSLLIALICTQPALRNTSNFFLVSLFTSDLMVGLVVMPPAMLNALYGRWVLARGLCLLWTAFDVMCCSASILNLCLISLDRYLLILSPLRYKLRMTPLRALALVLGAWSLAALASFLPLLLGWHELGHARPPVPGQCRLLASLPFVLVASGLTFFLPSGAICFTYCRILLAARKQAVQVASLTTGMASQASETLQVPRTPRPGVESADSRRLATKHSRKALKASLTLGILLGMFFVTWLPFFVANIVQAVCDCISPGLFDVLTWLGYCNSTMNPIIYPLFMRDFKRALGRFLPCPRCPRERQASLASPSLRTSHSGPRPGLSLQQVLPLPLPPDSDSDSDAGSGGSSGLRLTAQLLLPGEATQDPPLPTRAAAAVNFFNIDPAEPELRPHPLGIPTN
# [19] = target: Muscarinic acetylcholine receptor M1 (Homo sapiens) (UniProt P11229); conditions: Compound concentration 10.0 uM
# Sequence of Muscarinic acetylcholine receptor M1 (Homo sapiens) (P11229 whole entry): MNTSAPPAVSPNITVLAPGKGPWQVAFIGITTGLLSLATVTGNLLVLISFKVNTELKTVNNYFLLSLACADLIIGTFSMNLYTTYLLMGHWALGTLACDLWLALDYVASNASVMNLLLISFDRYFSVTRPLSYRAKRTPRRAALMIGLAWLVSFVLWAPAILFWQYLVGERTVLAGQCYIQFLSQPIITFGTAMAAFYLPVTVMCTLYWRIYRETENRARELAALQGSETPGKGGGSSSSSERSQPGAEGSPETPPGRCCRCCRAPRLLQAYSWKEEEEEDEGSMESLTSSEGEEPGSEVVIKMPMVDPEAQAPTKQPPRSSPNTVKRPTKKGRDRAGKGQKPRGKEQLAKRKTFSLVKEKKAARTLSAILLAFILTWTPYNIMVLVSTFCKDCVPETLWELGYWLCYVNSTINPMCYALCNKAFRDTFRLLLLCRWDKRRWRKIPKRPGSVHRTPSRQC
# [20] = target: Beta-1 adrenergic receptor (Homo sapiens) (UniProt P08588); conditions: Compound concentration 10.0 uM
# [21] = target: Beta-2 adrenergic receptor (Homo sapiens) (UniProt P07550); conditions: Compound concentration 10.0 uM
# [22] = target: D(2) dopamine receptor (Homo sapiens) (UniProt P14416); conditions: Compound concentration 10.0 uM
# [23] = target: D(4) dopamine receptor (Homo sapiens) (UniProt P21917); conditions: Compound concentration 10.0 uM
# Sequence of D(4) dopamine receptor (Homo sapiens) (P21917 whole entry): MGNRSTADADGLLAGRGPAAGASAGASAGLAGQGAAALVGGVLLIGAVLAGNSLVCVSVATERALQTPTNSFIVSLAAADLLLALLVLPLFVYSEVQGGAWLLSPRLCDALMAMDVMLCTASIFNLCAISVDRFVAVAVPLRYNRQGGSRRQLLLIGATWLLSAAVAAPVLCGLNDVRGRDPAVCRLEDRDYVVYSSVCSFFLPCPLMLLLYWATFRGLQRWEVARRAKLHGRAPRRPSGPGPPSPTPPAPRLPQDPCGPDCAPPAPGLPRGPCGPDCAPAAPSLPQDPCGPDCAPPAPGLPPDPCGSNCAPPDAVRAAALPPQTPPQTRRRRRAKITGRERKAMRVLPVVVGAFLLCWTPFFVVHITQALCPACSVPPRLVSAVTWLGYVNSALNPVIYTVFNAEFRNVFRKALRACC
# [24] = target: Alpha-2A adrenergic receptor (Homo sapiens) (UniProt P08913); conditions: Compound concentration 10.0 uM
# [25] = target: Alpha-1B adrenergic receptor (Homo sapiens) (UniProt P35368); conditions: Compound concentration 10.0 uM
# [26] = target: T4, 5-hydroxytryptamine receptor 2B (Homo sapiens, UniProt P41595); test: GPCRScan assay: inhibition of 5-HT2B; design: radioligand conc. used [nm] 1.0 – 2.0, parental cells stable HEK
# T4 sequence (P41595 whole entry): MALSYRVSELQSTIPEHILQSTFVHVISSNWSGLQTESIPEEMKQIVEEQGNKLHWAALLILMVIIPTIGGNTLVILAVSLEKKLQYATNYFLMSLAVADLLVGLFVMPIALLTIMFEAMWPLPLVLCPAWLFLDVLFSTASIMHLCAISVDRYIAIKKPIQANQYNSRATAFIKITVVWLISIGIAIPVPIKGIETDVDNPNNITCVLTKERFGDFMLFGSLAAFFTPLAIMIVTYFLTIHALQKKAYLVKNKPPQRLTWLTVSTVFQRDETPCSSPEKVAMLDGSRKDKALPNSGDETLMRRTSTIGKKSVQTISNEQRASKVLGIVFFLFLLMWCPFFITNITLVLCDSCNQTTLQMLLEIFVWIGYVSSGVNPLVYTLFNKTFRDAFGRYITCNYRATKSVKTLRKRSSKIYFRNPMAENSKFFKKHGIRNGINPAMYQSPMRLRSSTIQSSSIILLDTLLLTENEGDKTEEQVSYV
# [27] = target: Mu-type opioid receptor (Homo sapiens) (UniProt P35372); conditions: Compound concentration 10.0 uM
# Sequence of Mu-type opioid receptor (Homo sapiens) (P35372 whole entry): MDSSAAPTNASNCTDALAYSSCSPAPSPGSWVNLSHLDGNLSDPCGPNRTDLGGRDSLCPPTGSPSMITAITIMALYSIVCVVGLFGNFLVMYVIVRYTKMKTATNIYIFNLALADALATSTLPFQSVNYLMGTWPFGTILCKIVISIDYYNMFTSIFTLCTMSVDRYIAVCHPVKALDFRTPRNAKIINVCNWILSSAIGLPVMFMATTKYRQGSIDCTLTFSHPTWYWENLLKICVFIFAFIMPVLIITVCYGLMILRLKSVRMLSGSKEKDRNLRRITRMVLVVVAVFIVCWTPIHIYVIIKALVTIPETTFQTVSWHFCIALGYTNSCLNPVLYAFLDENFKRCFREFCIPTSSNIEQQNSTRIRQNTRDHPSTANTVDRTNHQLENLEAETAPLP
# [28] = target: 5-hydroxytryptamine receptor 5A (Homo sapiens) (UniProt P47898); conditions: Compound concentration 10.0 uM
# Sequence of 5-hydroxytryptamine receptor 5A (Homo sapiens) (P47898 whole entry): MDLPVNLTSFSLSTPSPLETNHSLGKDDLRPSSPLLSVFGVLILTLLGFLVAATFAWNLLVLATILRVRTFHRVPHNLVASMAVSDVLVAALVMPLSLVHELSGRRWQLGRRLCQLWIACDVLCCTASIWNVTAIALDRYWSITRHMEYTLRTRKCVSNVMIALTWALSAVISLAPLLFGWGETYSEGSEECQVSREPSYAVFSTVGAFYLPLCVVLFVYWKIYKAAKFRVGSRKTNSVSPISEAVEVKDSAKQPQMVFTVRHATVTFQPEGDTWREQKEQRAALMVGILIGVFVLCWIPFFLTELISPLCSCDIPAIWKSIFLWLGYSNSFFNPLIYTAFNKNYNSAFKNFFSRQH
# [29] = target: T2, Sigma intracellular receptor 2; test: GPCRScan assay: inhibition of Sigma 2; design: radioligand conc. used [nm] 5.0, parental cells HEKT
# [30] = target: Delta-type opioid receptor (Homo sapiens) (UniProt P41143); conditions: Compound concentration 10.0 uM
# [31] = target: 5-hydroxytryptamine receptor 1A (Homo sapiens) (UniProt P08908); conditions: Compound concentration 10.0 uM
# Sequence of 5-hydroxytryptamine receptor 1A (Homo sapiens) (P08908 whole entry): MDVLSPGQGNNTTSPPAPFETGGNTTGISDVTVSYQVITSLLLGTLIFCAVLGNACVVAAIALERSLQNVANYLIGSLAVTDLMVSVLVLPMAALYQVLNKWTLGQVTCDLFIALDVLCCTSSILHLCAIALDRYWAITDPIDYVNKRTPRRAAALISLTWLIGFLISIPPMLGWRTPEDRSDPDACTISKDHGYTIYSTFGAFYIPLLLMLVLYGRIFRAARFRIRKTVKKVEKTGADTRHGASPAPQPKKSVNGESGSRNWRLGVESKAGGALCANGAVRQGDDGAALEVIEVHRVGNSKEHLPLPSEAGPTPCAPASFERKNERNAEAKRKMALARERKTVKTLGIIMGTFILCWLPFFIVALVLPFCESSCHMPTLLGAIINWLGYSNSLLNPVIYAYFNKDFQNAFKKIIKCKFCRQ
# [32] = target: T4, 5-hydroxytryptamine receptor 2B; conditions: Compound concentration 10.0 uM
# Rattus norvegicus = species on record: Rattus norvegicus; conditions: Compound concentration 10.0 uM
# [33] = target: Histamine H1 receptor (Homo sapiens) (UniProt P35367); conditions: Compound concentration 10.0 uM
# [34] = target: Muscarinic acetylcholine receptor M4 (Homo sapiens) (UniProt P08173); conditions: Compound concentration 10.0 uM
# [35] = target: T5, Sigma non-opioid intracellular receptor 1 (Homo sapiens, UniProt Q99720); test: GPCRScan assay: inhibition of Sigma 1; design: radioligand conc. used [nm] 4.0 – 5.0, parental cells HEKT
# T5 sequence (Q99720 whole entry): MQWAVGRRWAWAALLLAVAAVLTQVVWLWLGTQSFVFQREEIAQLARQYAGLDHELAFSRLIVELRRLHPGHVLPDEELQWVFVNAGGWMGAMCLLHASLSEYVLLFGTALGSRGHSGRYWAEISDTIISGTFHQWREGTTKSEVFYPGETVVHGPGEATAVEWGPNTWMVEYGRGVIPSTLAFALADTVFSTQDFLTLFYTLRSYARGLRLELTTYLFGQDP
# [36] = target: Muscarinic acetylcholine receptor M2 (Homo sapiens) (UniProt P08172); conditions: Compound concentration 10.0 uM
# [37] = target: 5-hydroxytryptamine receptor 2A (Homo sapiens) (UniProt P28223); conditions: Compound concentration 10.0 uM
# [38] = target: D(3) dopamine receptor (Homo sapiens) (UniProt P35462); conditions: Compound concentration 10.0 uM
# [39] = target: Alpha-2B adrenergic receptor (Homo sapiens) (UniProt P18089); conditions: Compound concentration 10.0 uM
# [40] = target: 5-hydroxytryptamine receptor 2C (Homo sapiens) (UniProt P28335); conditions: Compound concentration 10.0 uM
# [41] = target: T5, Sigma non-opioid intracellular receptor 1; conditions: Compound concentration 10.0 uM
# [42] = target: Muscarinic acetylcholine receptor M3 (Homo sapiens) (UniProt P20309); conditions: Compound concentration 10.0 uM
# [43] = target: Beta-3 adrenergic receptor (Homo sapiens) (UniProt P13945); conditions: Compound concentration 10.0 uM
# [44] = target: 5-hydroxytryptamine receptor 1D (Homo sapiens) (UniProt P28221); conditions: Compound concentration 10.0 uM
# [45] = GXF25 1 cell line Proliferation assay; format: functional, Homo sapiens; conditions: Cell line Patient derived
# RKO = test: RKO cell line Proliferation assay; format: functional, Homo sapiens
# [46] = LXFA62 9 cell line Proliferation assay; format: functional, Homo sapiens, LXF 629L; conditions: Cell line Patient derived
# [47] = target: D(1A) dopamine receptor (Homo sapiens) (UniProt P21728); conditions: Compound concentration 10.0 uM
# [48] = BXF135 2 cell line Proliferation assay; format: functional, Homo sapiens; conditions: Cell line Patient derived
# BG-1 cell line = test: BG1 cell line Proliferation assay; format: functional, Homo sapiens
# [49] = target: 5-hydroxytryptamine receptor 1E (Homo sapiens) (UniProt P28566); conditions: Compound concentration 10.0 uM
# SK-MEL-28 = test: SK- MEL-28 cell line Proliferation assay; format: functional, Homo sapiens
# [50] = target: T3, 5-hydroxytryptamine receptor 6; test: GPCRScan assay: inhibition of 5-HT6; design: radioligand conc. used [nm] 2.0 – 4.0, parental cells stable HEK
# [51] = target: 5-hydroxytryptamine receptor 3A (Homo sapiens, UniProt P46098); test: GPCRScan assay: inhibition of 5-HT3; design: radioligand conc. used [nm] 1.0 – 2.0, parental cells HEKT
# [52] = target: Alpha-2C adrenergic receptor (Homo sapiens, UniProt P18825); test: GPCRScan assay: inhibition of Alpha2C; design: radioligand conc. used [nm] 0.5 – 1.0, parental cells stable MDCK
# MKN-1 = test: MKN1 cell line Proliferation assay; format: functional, Homo sapiens
# [53] = target: Muscarinic acetylcholine receptor M2 (Homo sapiens, UniProt P08172); test: GPCRScan assay: inhibition of M2; design: radioligand conc. used [nm] 0.2 – 1.0, parental cells stable CHO
# LS174T = test: LS174T cell line Proliferation assay; format: functional, Homo sapiens
# [54] = target: T1, GABA-A receptor; anion channel (Rattus norvegicus); conditions: Compound concentration 10.0 uM; remark: listed apart in the source
# [55] = BXF121 8 cell line Proliferation assay; format: functional, Homo sapiens; conditions: Cell line Patient derived
# LOX IMVI = test: LOX cell line Proliferation assay; format: functional, Homo sapiens
# Caco-2 = test: Caco-2 cell line Proliferation assay; format: functional, Homo sapiens
smiles,measurement,setting,value
Cn1c(-c2csc(C3CCN(CC4=NC5N=CC=CC5N4)CC3)n2)nc2ccccc21 (configuration not stated) [BAY-070],inhibition,[1],6.33%
same,inhibition,[2],45.1%
same,inhibition,[3],-6.05%
same,inhibition,[4],-7.57%
same,inhibition,[5],5.35%
same,inhibition,[6],7.08%
same,inhibition,[7],-1.09%
same,inhibition,[8],10.1%
same,inhibition,[9],1.91%
same,inhibition,[10],14.4%
same,inhibition,[11],18.1%
same,inhibition,[12],19.9%
same,inhibition,[13],-3.53%
same,inhibition,[14],-9.17%
same,inhibition,[15],4.71%
same,inhibition,[16],13.5%
same,inhibition,[17],98%
same,inhibition,[18],31.4%
same,inhibition,[19],43.4%
same,inhibition,[20],19.9%
same,inhibition,[21],23%
same,inhibition,[22],44.6%
same,inhibition,[23],44%
same,inhibition,[24],27.1%
same,inhibition,[25],7.64%
same,Ki,[26]; read-out: Ki,1580 nM
same,Ki,[26]; read-out: pKi (converted),1510 nM
same,inhibition,[27],9.54%
same,inhibition,[28],16.2%
same,Ki,[29]; read-out: Ki,152 nM
same,inhibition,[30],3.76%
same,inhibition,[31],10.2%
same,inhibition,[32],72%
same,inhibition,Rattus norvegicus,13.7%
same,inhibition,[33],0.44%
same,inhibition,[34],14.7%
same,Ki,[35],1290 nM
same,inhibition,[36],10.1%
same,inhibition,[37],-4.2%
same,inhibition,[38],47.6%
same,inhibition,[39],22%
same,inhibition,[40],8.59%
same,inhibition,[41],80%
same,inhibition,[42],16.1%
same,inhibition,[43],19.5%
same,inhibition,[44],-0.96%
c1ccc2oc(-c3csc(C4CCN(Cc5nc6ncccc6[nH]5)CC4)n3)cc2c1,inhibition,[1],15.5%
same,Cell Proliferation EC50,[45],81 nM
same,Cell Proliferation EC70,[45],147 nM
same,Cell Proliferation EC50,RKO,153 nM
same,Cell Proliferation EC70,RKO,251 nM
same,inhibition,[2],72.1%
same,inhibition,[3],48.3%
same,Cell Proliferation EC50,[46],66 nM
same,Cell Proliferation EC70,[46],195 nM
same,inhibition,[47],-2.56%
same,inhibition,[4],-4.94%
same,inhibition,[5],5.5%
same,Cell Proliferation EC50,[48],23 nM
same,Cell Proliferation EC70,[48],48 nM
same,Cell Proliferation EC50,BG-1 cell line,142 nM
same,Cell Proliferation EC70,BG-1 cell line,207 nM
same,inhibition,[6],40.3%
same,inhibition,[49],30.9%
same,inhibition,[8],40.9%
same,inhibition,[9],14.8%
same,Cell Proliferation EC50,SK-MEL-28,75 nM
same,Cell Proliferation EC70,SK-MEL-28,215 nM
same,inhibition,[10],9.84%
same,inhibition,[11],21.6%
same,Ki,[50],5240 nM
same,inhibition,[12],53.4%
same,Ki,[51]; read-out: Ki,5460 nM
same,Ki,[51]; read-out: pKi (converted),5370 nM
same,Ki,[52],3500 nM
same,inhibition,[14],2.33%
same,inhibition,[15],16%
same,inhibition,[16],-7.72%
same,Cell Proliferation EC50,MKN-1,34 nM
same,Cell Proliferation EC70,MKN-1,85 nM
same,inhibition,[17],78.1%
same,inhibition,[18],72.4%
same,Ki,[53]; read-out: Ki,5470 nM
same,Ki,[53]; read-out: pKi (converted),4420 nM
same,Cell Proliferation EC50,LS174T,43 nM
same,Cell Proliferation EC70,LS174T,109 nM
same,inhibition,[19],1.7%
same,inhibition,[20],20.9%
same,inhibition,[21],25.4%
same,inhibition,[22],5.5%
same,inhibition,[23],16.5%
same,inhibition,[24],32.1%
same,inhibition,[25],35.7%
same,Ki,[26]; read-out: Ki,558 nM
same,Ki,[26]; read-out: pKi (converted),550 nM
same,inhibition,[54],7.9%
same,Cell Proliferation EC50,[55],65 nM
same,Cell Proliferation EC70,[55],104 nM
same,Cell Proliferation EC50,LOX IMVI,126 nM
same,Cell Proliferation EC70,LOX IMVI,335 nM
same,inhibition,[27],22.4%
same,inhibition,[28],19.9%
same,Ki,[29]; read-out: Ki,1120 nM
same,Ki,[29]; read-out: pKi (converted),1100 nM
same,inhibition,[30],22%
same,inhibition,[31],16.4%
same,Cell Proliferation EC50,Caco-2,129 nM
same,Cell Proliferation EC70,Caco-2,209 nM
same,inhibition,[32],74.5%
same,inhibition,Rattus norvegicus,20.2%
same,inhibition,[33],37.4%
same,inhibition,[34],-4.61%
same,Ki,[35],1180 nM
same,inhibition,[36],54.2%
same,inhibition,[37],5.87%
same,inhibition,[38],28.6%
same,inhibition,[39],28.7%
same,inhibition,[40],20.2%
same,inhibition,[41],55.4%
same,inhibition,[42],-0.2%
same,inhibition,[43],11.7%
same,inhibition,[44],16.9%
